Some test systems named below: 786-0; A549; COLO 205; DU-145; EKVX; HCC 2998; HOP-62; HT-29; K562; LOX IMVI; MDA-MB-435; MOLT-4; NCI-H460; NCI-H522; OVCAR-3; OVCAR-8; RPMI-8226; RXF 393; SK-MEL-28; TK-10.
Assay in all cases: growth of human tumour cells (NCI), 48 h

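In this assay, cells in 96-well plates receive the compound at five concentrations for 48 hours. Endpoints are linearly interpolated between the surrounding concentrations. Abbreviation: GI50, concentration required for 50% inhibition of growth.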 Active and inactive are the calls of the source. No stated cut-off is given here; in the data, active = GI50 up to about 1.1 µM and inactive = higher. Bounds are passed on as bounds.

`C=C1[C@@H](C)[C@H]2[C@H](Cc3ccccc3)NC(=O)[C@]23OC(=O)/C=C/[C@H](O)CCC[C@@H](C)C/C=C/[C@H]3[C@@H]1O`: the GI50 is 7.62 µM (inactive) in the assay with 786-0; 2.85 µM (inactive) in the assay on A549; 0.713 µM (active) in the assay on COLO 205; 30.1 µM (inactive) with DU-145; 10.7 µM (inactive) in the assay on EKVX; 50 µM (inactive) with HCC 2998. Besides, the GI50 is 0.605 µM (active) in the assay with HOP-62; 5.82 µM (inactive) in the assay with HT-29; 9.18 µM (inactive) with K562; 0.486 µM (active) in the assay on LOX IMVI; 21.8 µM (inactive) in the assay with MDA-MB-435; 4.04 µM (inactive) with MOLT-4. The GI50 in the assay on NCI-H460 is 2.62 µM (inactive); with NCI-H522, 9.23 µM (inactive); in the assay with OVCAR-3, 7.48 µM (inactive); in the assay on OVCAR-8 it was 5.43 µM (inactive); in the assay on RPMI-8226 it was 1.82 µM (inactive); with RXF 393, 0.94 µM (active). In addition, the GI50 is 12.8 µM (inactive) in the assay on SK-MEL-28 and 4.06 µM (inactive) in the assay with TK-10.

In the case of `CNC(=O)OCc1cnc([N+](=O)[O-])n1C`, the GI50 in the assay with 786-0, in the assay with A549, in the assay on COLO 205, in the assay with DU-145, in the assay on EKVX and in the assay with HCC 2998 was > 100 µM (inactive) in each case. In addition, the GI50 in the assay on HOP-62, in the assay on HT-29, with K562, with LOX IMVI, in the assay with MDA-MB-435 and in the assay with MOLT-4 was > 100 µM (inactive) in each case. The GI50 with NCI-H460, in the assay with NCI-H522, in the assay with OVCAR-3, with OVCAR-8, with RPMI-8226 and in the assay with RXF 393 was > 100 µM (inactive) in each case. For the same compound, the GI50 in the assay with SK-MEL-28 and in the assay with TK-10 was > 100 µM (inactive) each time.

Regarding `N=C(N)NS(=O)(=O)c1ccc(NC(=O)c2ccc3nc4ccccc4c(Nc4ccc(S(=O)(=O)N=C(N)N)cc4)c3c2)cc1`, the GI50 in the assay with 786-0, with A549, in the assay on COLO 205, in the assay on DU-145, in the assay on EKVX and with HCC 2998 was > 100 µM (inactive) throughout. Besides, the GI50 with HOP-62 was > 100 µM (inactive); in the assay with HT-29, > 100 µM (inactive); with K562, > 100 µM (inactive); with LOX IMVI, 61.8 µM (inactive); with MDA-MB-435, > 100 µM (inactive); with MOLT-4, > 100 µM (inactive). Besides, the GI50 with NCI-H460, in the assay on NCI-H522, in the assay with OVCAR-3, in the assay on OVCAR-8, with RPMI-8226 and with RXF 393 was > 100 µM (inactive) in each case. The GI50 in the assay on SK-MEL-28 and in the assay with TK-10 was > 100 µM (inactive) each time.

`CC(C)(C)c1cc(C(C)(C)C)c2c(c1O)OC(=O)CS2`: the GI50 with 786-0 is 6.07 µM (inactive); with A549 it was 3.59 µM (inactive); with COLO 205, 2.99 µM (inactive); with DU-145, 15.7 µM (inactive); in the assay on EKVX, 4.31 µM (inactive); with HCC 2998, 3.03 µM (inactive). The GI50 in the assay with HOP-62 was 7.13 µM (inactive); with HT-29, 4.34 µM (inactive); in the assay on K562, 3.16 µM (inactive); in the assay on LOX IMVI it was 8.47 µM (inactive); in the assay on MDA-MB-435, 3.85 µM (inactive); in the assay with MOLT-4 it was 4.61 µM (inactive). Besides, the GI50 in the assay with NCI-H460 is 2.75 µM (inactive); with NCI-H522, 4.06 µM (inactive); in the assay with OVCAR-3, 3.69 µM (inactive); with OVCAR-8 it was 5.98 µM (inactive); in the assay on RPMI-8226 it was 21.1 µM (inactive); in the assay with RXF 393, 3.61 µM (inactive). Further, the GI50 is 13.4 µM (inactive) in the assay with SK-MEL-28 and 3.88 µM (inactive) with TK-10.

Take `O=C(/C=C/NC(=O)OCc1ccccc1)OCc1ccccc1`: the GI50 in the assay with 786-0, in the assay with A549, with COLO 205, with DU-145, in the assay on EKVX and in the assay with HCC 2998 was > 100 µM (inactive) each time. For the same compound, the GI50 in the assay with HOP-62, with HT-29, with K562, in the assay on LOX IMVI, in the assay with MDA-MB-435 and in the assay with MOLT-4 was > 100 µM (inactive) in each case. Also, the GI50 in the assay on NCI-H460, in the assay with NCI-H522, with OVCAR-3, in the assay with OVCAR-8, with RPMI-8226 and in the assay on RXF 393 was > 100 µM (inactive) throughout. Also, the GI50 with SK-MEL-28 was > 100 µM (inactive); in the assay on TK-10, 86.7 µM (inactive).

Regarding `Cc1cc(NS(=O)(=O)c2ccc(NC(=O)c3cccc4c(NNc5ccc(S(N)(=O)=O)cc5)c5ccccc5nc34)cc2)no1`, the GI50 is 54.6 µM (inactive) with 786-0; > 100 µM (inactive) in the assay with A549; 45.1 µM (inactive) with COLO 205; 86.5 µM (inactive) in the assay on DU-145; 33.4 µM (inactive) in the assay with EKVX; 27.3 µM (inactive) with HCC 2998. The GI50 was 42.4 µM (inactive) in the assay with HOP-62; 30.9 µM (inactive) with HT-29; 33.4 µM (inactive) with K562; 30.5 µM (inactive) with LOX IMVI; 75.7 µM (inactive) with MDA-MB-435; 31 µM (inactive) in the assay on MOLT-4. Besides, the GI50 with NCI-H460 is 34.9 µM (inactive); in the assay with NCI-H522 it was 25 µM (inactive); with OVCAR-3, 26.7 µM (inactive); with OVCAR-8, 47.9 µM (inactive); in the assay on RPMI-8226 it was 43.4 µM (inactive); in the assay with RXF 393, 41.5 µM (inactive). Moreover, the GI50 in the assay on SK-MEL-28 is 35.2 µM (inactive); with TK-10, 83.2 µM (inactive).

Regarding `C=C1C(OC)=C(OC)C(=O)c2[nH]c3c(OC)cc([N+](=O)[O-])cc3c21`, the GI50 with 786-0 is 37.8 µM (inactive); in the assay on A549 it was > 100 µM (inactive); with COLO 205 it was > 100 µM (inactive); with DU-145 it was > 100 µM (inactive); in the assay with EKVX, 62.4 µM (inactive); in the assay on HCC 2998, > 100 µM (inactive). Besides, the GI50 is 85.7 µM (inactive) in the assay on HOP-62; > 100 µM (inactive) with HT-29; > 100 µM (inactive) in the assay on K562; > 100 µM (inactive) with LOX IMVI; > 100 µM (inactive) in the assay on MDA-MB-435; > 100 µM (inactive) with MOLT-4. Further, the GI50 was > 100 µM (inactive) with NCI-H460; > 100 µM (inactive) with NCI-H522; > 100 µM (inactive) in the assay with OVCAR-3; > 100 µM (inactive) with OVCAR-8; > 100 µM (inactive) with RPMI-8226; 37 µM (inactive) in the assay on RXF 393. The GI50 in the assay with SK-MEL-28 and in the assay on TK-10 was > 100 µM (inactive) throughout.

Regarding `Cc1c(-c2cnccn2)ssc1=S` [OLTIPRAZ], the GI50 was 40.4 µM (inactive) with 786-0; 98.9 µM (inactive) with A549; > 100 µM (inactive) in the assay with COLO 205; > 100 µM (inactive) in the assay on DU-145; 33.2 µM (inactive) in the assay with EKVX; > 100 µM (inactive) in the assay on HCC 2998. For the same compound, the GI50 is 47 µM (inactive) with HOP-62; > 100 µM (inactive) in the assay with HT-29; > 100 µM (inactive) with K562; 63 µM (inactive) in the assay with LOX IMVI; > 100 µM (inactive) in the assay with MDA-MB-435; > 96.4 µM (inactive) with MOLT-4. Moreover, the GI50 in the assay on NCI-H460 is > 100 µM (inactive); with NCI-H522 it was 34.8 µM (inactive); in the assay with OVCAR-3 it was 99.3 µM (inactive); with OVCAR-8, 72.4 µM (inactive); with RPMI-8226, > 100 µM (inactive); with RXF 393, 31.9 µM (inactive). Besides, the GI50 in the assay on SK-MEL-28 was > 100 µM (inactive); in the assay on TK-10, 62.7 µM (inactive).

Take `Cc1cn([C@H]2C[C@H](N=[N+]=[N-])[C@@H](CO)O2)c(=O)[nH]c1=O` [ZIDOVUDINE]: the GI50 with 786-0 was > 100 µM (inactive); in the assay with A549 it was > 97.3 µM (inactive); in the assay on COLO 205, 98.4 µM (inactive); with DU-145, 420 µM (inactive); with EKVX, > 100 µM (inactive); with HCC 2998, > 100 µM (inactive). The GI50 in the assay with HOP-62 is > 100 µM (inactive); with HT-29 it was 238 µM (inactive); in the assay on K562, 177 µM (inactive); in the assay on LOX IMVI, > 83 µM (inactive); with MDA-MB-435, 565 µM (inactive); with MOLT-4 it was > 100 µM (inactive). The GI50 with NCI-H460 was 42.7 µM (inactive); in the assay on NCI-H522, > 100 µM (inactive); in the assay with OVCAR-3, > 100 µM (inactive); in the assay on OVCAR-8, 180 µM (inactive); with RPMI-8226, 48.3 µM (inactive); in the assay on RXF 393 it was 89.5 µM (inactive). Besides, the GI50 in the assay with SK-MEL-28 is > 100 µM (inactive); in the assay with TK-10 it was 656 µM (inactive).
